These results are taken from patent US20090318530A1, “PHARMACEUTICAL COMPOSITIONS COMPRISING NK1 RECEPTOR ANTAGONISTS AND SODIUM CHANNEL BLOCKERS” (GLAXO GROUP LIMITED, priority 2007, published 2009).

For series [1], the system named is threshold for tonic hindlimb extensor seizures. Nature of the series: Maximal electroshock seizure threshold (MEST) test, 'up and down' method. It is filed as in vivo, rat. Particulars: male CD rats. As to the method: This work was conducted in compliance with the Home Office Guidance on the operation of the Animals (Scientific Procedures) Act 1986 and GlaxoSmithKline ethical standards. Male CD rats (100-145 g) were supplied by Charles River, UK. Animals were group housed (6 animal per cage) with free access to food (Standard rodent chow; Harlan, UK) and water under a 12 h light/dark cycle (lights on at 0700 h). A period of at least one week between arrival at GSK and the study was allowed in all cases.
Animals were administered a test compound at the appropriate dose, route and pre-treatment time and returned to their home cage. Testing occurred in a separate room from that used for housing. […] Seizure threshold was determined using the ‘up and down’ method of Kimball et al. (1957)(Kimball A W, Burnett W T Jr, Doherty D G. (1957) Radiat Res. 7(1):1-12). […]
All doses were calculated as base. […]
Induction of seizure is measured as an all-or-nothing effect scored as either present (+) or absent (0) for each animal. […] Drug effects were calculated as the % change in CC50. Significant differences between drug-treated animals and appropriate vehicle treated groups were assessed according to the methods of Litchfield and Wilcoxon (1949). The statistical significance of differences between (5R)-5-(4-{[(2-fluorophenyl)methyl]oxy}phenyl)-L-prolinamide or in combination with ENK6 was assessed using a Student's t test.
Background: Protection in the maximal electroshock model is a classic sign of anticonvulsant action.

The nature of series [2]: Blood and brain drug concentrations in satellite animals. In kind it is in vivo. Particulars: rat; for concentration at 60 min / concentration at 30 min: CD; for concentration at 60 min: intraperitoneal; for concentration at 30 min: subcutaneous. As to the method:
[…] Blood and brain samples were taken for analysis of the drug concentrations in these compartments.
All doses were calculated as base. ENa8 was dosed via the subcutaneous (s.c.) route at 1 ml/kg in a 2% v/v DMSO/saline vehicle 30 minutes prior to test. Compound ENK6 was dosed with via the intraperitoneal (i.p.) route 60 minutes before the test. ENK6 was dissolved in saline.

Like-named read-outs stand apart in the source and are kept apart here.

For `COc1ccc(-n2nnnc2C(F)(F)F)cc1CN[C@H]1CCCN[C@H]1c1ccccc1.Cl.Cl` [ENK6, [2-Methoxy-5-(5-trifluoromethyl-tetrazol-1-yl)-benzyl]-([2S,3S]-2-phenyl-piperidin-3-yl)-amine dihydrochloride], the “seizure threshold in the MEST” value in series [1] (ENK6 30 mg/kg i.p. alone, 60 min before test) is “no effect”. Further, the concentration at 60 min was 1510 ng/g in series [2] (brain, 30 mg/kg, ENK6 30 mg/kg, ENa8 veh, rat satellite animal n=1, read-out: Brain ENK6); 1160 ng/g in series [2] (brain, ENK6 30 mg/kg + ENa8 1 mg/kg, rat satellite animals n=2, read-out: Brain ENK6); 881 ng/g in series [2] (brain, ENK6 30 mg/kg + ENa8 3 mg/kg, rat satellite animals n=2, read-out: Brain ENK6); 631 ng/mL in series [2] (whole blood, 30 mg/kg, ENK6 30 mg/kg, ENa8 veh, rat satellite animal n=1, read-out: Blood ENK6); 471 ng/mL in series [2] (whole blood, ENK6 30 mg/kg + ENa8 1 mg/kg, rat satellite animals n=2, read-out: Blood ENK6); 414 ng/mL in series [2] (whole blood, ENK6 30 mg/kg + ENa8 3 mg/kg, rat satellite animals n=2, read-out: Blood ENK6).

Consider `Cl.NC(=O)[C@@H]1CC[C@H](c2ccc(OCc3ccccc3F)cc2)N1` [ENa8, (5R)-5-(4-{[(2-fluorophenyl)methyl}oxy]phenyl)-L-prolinamide hydrochloride], for which the “seizure threshold in the MEST” value in series [1] (ENa8 3 mg/kg s.c. alone, 30 min prior to test) is on record as “small, but significant increase”. For the same compound, the concentration at 30 min in series [2] (brain, 1 mg/kg, ENa8 1 mg/kg, ENK6 veh, rat satellite animals n=2, read-out: Brain ENa8) came to 1170 ng/g; in series [2] (brain, 3 mg/kg, ENa8 3 mg/kg, ENK6 veh, rat satellite animals n=2, read-out: Brain ENa8), 2300 ng/g; in series [2] (brain, ENa8 1 mg/kg + ENK6 30 mg/kg, rat satellite animals n=2, read-out: Brain ENa8) it was 1340 ng/g; in series [2] (brain, ENa8 3 mg/kg + ENK6 30 mg/kg, rat satellite animals n=2, read-out: Brain ENa8), 2620 ng/g; in series [2] (whole blood, 1 mg/kg, ENa8 1 mg/kg, ENK6 veh, rat satellite animals n=2, read-out: Blood ENa8), 188 ng/mL; in series [2] (whole blood, 3 mg/kg, ENa8 3 mg/kg, ENK6 veh, rat satellite animals n=2, read-out: Blood ENa8), 349 ng/mL. Further, the concentration at 30 min in series [2] (whole blood, ENa8 1 mg/kg + ENK6 30 mg/kg, rat satellite animals n=2, read-out: Blood ENa8) worked out at 246 ng/mL; in series [2] (whole blood, ENa8 3 mg/kg + ENK6 30 mg/kg, rat satellite animals n=2, read-out: Blood ENa8), 456 ng/mL. Also, in series [2] (ENa8 1 or 3 mg/kg s.c. with ENK6 30 mg/kg i.p. versus ENa8 alone), the “blood or brain concentration of ENa8 in the presence of ENK6” value is “No increase”.
